These results are taken from patent US20250223301A1, “KINASE INHIBITORS, PREPARATION METHODS AND USES THEREOF” (InventisBio Co., Ltd., priority 2022, published 2025).

Test [1] deals with PBMC. Nature of the test: Human PBMC IL-2 assay. Particulars: anti-CD3/CD28 stimulation overnight, IL-2 level. The format is cell-based. The method, then: PBMC (frozen) obtained from health donor were thawed in RPMI-1640 medium with 10% FBS and incubated for 4 h at 37° C. In a 96-well plate, −200,000 PBMC cells in 160 uL were added to each assay well. Ten microliter compound solution (10 uM to 0.6 nM, 8 points with 4-fold dilution) were added to cells in each well and incubated for 60 minutes at 37° C. Then 30 uL anti-CD3/CD28 antibody (Catalog #10991, Stemcell) were added to cells and incubated overnight at 37° C. After the incubation, 16 uL supernatants were transferred into a new 384-well white assay plate for cytokine analysis. IL-2 level was quantified using Human IL-2 kit (Catalog #62HIL02PEG, Cisbio) as described in the manufacturer manual.
(§1) X is log of compound concentration, Y is the IL-2 concentration, increasing as X increases.

Test [2] has as its system Jurkat cells. Nature of the test: Jurkat IL-2 assay. The format is cell-based. The settings on record: Homo sapiens, anti-CD3/CD28 stimulation overnight, IL-2 level. The method, then: Jurkat cells (ATCC) were cultured in RPMI-1640 medium supplemented with 10% FBS. In a 96-well plate, −250,000 cells in 130 uL were added to each assay well. Ten microliter compound solution (5 uM to 2.3 nM, 8 points with 3-fold dilution) were added to cells in each well and incubated for 60 minutes at 37° C. Then 10 uL anti-CD3/CD28 antibody (Catalog #10991, Stemcell) were added and incubated overnight at 37° C. After the incubation, 16 uL supernatants were transferred into a new 384-well white assay plate for cytokine analysis. IL-2 was quantified using Human IL-2 kit (Catalog #62HIL02PEG, Cisbio) as described in the manufacturer manual.
as §1

As a reminder, the EC50 is the concentration that produces a half-maximal response. Low values mean a more potent agent, high ones a less potent agent. As for `C[C@@H]1CN2c3c(c(=O)n(C)c4ccc(C#N)nc34)OC[C@@H]2CN1[C@@H](C)c1ccc(Cl)cc1F` (stereo in doubt) [Compound 275], the EC50 in test [1] came out at 23 nM; in test [2], 51 nM.

Turning to `CC[C@@H]1CN2c3c(c(=O)n(C)c4ccc(C#N)nc34)OC[C@@H]2CN1[C@@H](c1ccc(F)cc1)c1nc(C2CC2)no1` (stereo in doubt) [Compound 159], the EC50 came to 41 nM in test [1] and 12 nM in test [2].

Turning to `CC[C@@H](c1ccc(C(F)(F)F)cc1F)N1C[C@H]2COc3c(c4nc(C#N)ccc4n(C)c3=O)N2C[C@H]1C` (stereo in doubt) [Compound 306], the concentration giving a half-maximal response (EC50) in test [1] was found to be 30 nM; in test [2], 36 nM.

With `CC[C@@H]1CN2c3c(c(=O)n(C)c4ccc(C#N)nc34)OC[C@@H]2CN1[C@@H](CC)c1ccc(C(F)(F)F)cn1` (stereo in doubt) [Compound 186], the EC50 in test [1] came to 23 nM; in test [2], 13 nM.

`CC[C@@H]1CN2c3c(c(=O)n(C)c4ccc(C#N)nc34)OC[C@@H]2CN1[C@@H](CC)c1ccc(Cl)cc1` (stereo in doubt) [Compound 244]: the half-maximal effective concentration (EC50) in test [1] amounted to 11 nM; in test [2], 63 nM.

On to `CC[C@@H](c1ccc(Cl)c(C(F)(F)F)c1)N1C[C@H]2COc3c(c4nc(C#N)ccc4n(C)c3=O)N2C[C@H]1C` (stereo in doubt) [Compound 318], for which the EC50 in test [1] is 349 nM; in test [2] it was 359 nM.

In the case of `C[C@@H]1CN2c3c(c(=O)n(C)c4ccc(C#N)nc34)OC[C@@H]2CN1[C@H](C)c1ccc(Cl)c(Cl)c1` (stereo in doubt) [Compound 258], the concentration for a half-maximal effect (EC50) in test [1] turned out to be 1100 nM; in test [2], 758 nM.

On to `CC[C@@H]1CN2c3c(c(=O)n(C)c4ccc(C#N)nc34)OC[C@@H]2CN1[C@@H](CC)c1ccc(Cl)c(C)c1` (stereo in doubt) [Compound 341], for which the concentration giving a half-maximal response (EC50) in test [1] was determined as 13 nM; in test [2] it was 6 nM.

On to `CC[C@@H]1CN2c3c(c(=O)n(C)c4ccc(C#N)nc34)OC[C@@H]2CN1[C@@H](CO)c1ccc(C(F)(F)F)cc1` [Compound 235], for which the concentration giving a half-maximal response (EC50) in test [1] is 662 nM; in test [2], 538 nM.

In the case of `C[C@@H]1CN2c3c(c(=O)n(C)c4ccc(C#N)nc34)OC[C@@H]2CN1[C@H](C)c1ccc(C(F)F)cc1` (stereo in doubt) [Compound 314], the figures for the EC50 in test [1] and in test [2] were 22 nM and 77 nM, respectively.

Take `CC[C@@H](c1ccc(F)c(Cl)c1)N1C[C@H]2COc3c(c4nc(C#N)ccc4n(C)c3=O)N2C[C@H]1C` (stereo in doubt) [Compound 238]: the EC50 in test [1] was 78 nM; in test [2], 189 nM.

As for `CCC[C@@H]1CN2c3c(c(=O)n(C)c4ccc(C#N)nc34)OC[C@@H]2CN1[C@H](C)c1ccc(C(F)(F)F)cc1` (stereo in doubt) [Compound 158], the EC50 came out at 579 nM in test [1] and 277 nM in test [2].

On to `Cn1c(=O)nc(N2CCC[C@@]3(CC2)CC(c2ccc(OC(F)(F)F)cc2)=NO3)c2nc(C#N)ccc21` (stereo in doubt) [Compound 140], for which the EC50 in test [1] worked out at 259 nM; in test [2] it was 598 nM.

Consider `CC[C@@H]1CN2c3c(c(=O)n(C)c4ccc(C#N)nc34)OC[C@@H]2CN1[C@H](c1ccc(Cl)cc1)c1ccccn1` (stereo in doubt) [Compound 156], for which the EC50 was 83 nM in test [1] and 124 nM in test [2].

Consider `CC[C@@H]1CN2c3c(c(=O)n(C)c4ccc(C#N)nc34)OC[C@@H]2CN1[C@H](c1ccc(C(F)(F)F)cc1)C1CC1` [Compound 347], for which the EC50 in test [1] came to 13 nM; in test [2] it was 9 nM.

On to `CC[C@H]1CN([C@@H](C)c2ccc(C(F)(F)F)cc2)[C@H](C)CN1c1nc2nncn2c2ccc(C#N)nc12` (stereo in doubt) [Compound 316], for which the half-maximal effective concentration (EC50) in test [1] turned out to be 742 nM; in test [2], 707 nM.

In the case of `CC[C@@H]1CN2c3c(c(=O)n(C)c4ccc(C#N)nc34)OC[C@@H]2CN1[C@H](CC)c1ncc(C(F)(F)F)cn1` [Compound 330], the half-maximal effective concentration (EC50) in test [1] was 115 nM; in test [2], 267 nM.

In the case of `CC[C@H]1CN([C@@H](CC)c2ccc(F)cc2F)[C@H](CC)CN1c1nc2nncn2c2ccc(C#N)nc12` (stereo in doubt) [Compound 194], the values for the half-maximal effective concentration (EC50) in test [1] and in test [2] were 79 nM and 104 nM, respectively.

Regarding `CC[C@@H]1CN2c3c(c(=O)n(C)c4ccc(C#N)nc34)OC[C@@H]2CN1[C@H](CC)c1ccc(C)c(Cl)c1` (stereo in doubt) [Compound 342], the concentration giving a half-maximal response (EC50) came to 280 nM in test [1] and 125 nM in test [2].

With `CC[C@@H]1CN2c3c(c(=O)n(C)c4ccc(C#N)nc34)OC[C@@H]2CN1[C@@H](CC)c1c(F)cc(F)cc1F` (stereo in doubt) [Compound 147], the concentration giving a half-maximal response (EC50) stood at 96 nM in test [1] and 55 nM in test [2].

Turning to `C[C@H]1c2cccc(-c3ccc(C(F)(F)F)cc3)c2CCN1c1nc(=O)n(C)c2ccc(C#N)nc12` [Compound 241], the concentration for a half-maximal effect (EC50) is 1100 nM in test [1] and 588 nM in test [2].

For the molecule `CC[C@@H]1CN2c3c(c(=O)n(C)c4ccc(C#N)nc34)OC[C@@H]2CN1[C@H](CC)c1cccc(C(F)(F)F)c1` (stereo in doubt) [Compound 148], the figures for the EC50 in test [1] and in test [2] were 582 nM and 209 nM, respectively.

Turning to `C[C@@H]1CN2c3c(c(=O)n(C)c4ccc(C#N)nc34)OC[C@@H]2CN1[C@H](C)c1ccc(C(C)(F)F)cc1` (stereo in doubt) [Compound 303], the 50% effective concentration (EC50) was found to be 105 nM in test [1] and 153 nM in test [2].

Regarding `CC[C@H](c1ccc(Cl)c(C(F)(F)F)c1)N1C[C@H]2COc3c(c4nc(C#N)ccc4n(C)c3=O)N2C[C@H]1C` (stereo in doubt) [Compound 317], the concentration giving a half-maximal response (EC50) was 105 nM in test [1] and 21 nM in test [2].

As to `C[C@@H]1CN2c3c(c(=O)n(C)c4ccc(C#N)nc34)OC[C@@H]2CN1[C@@H](C)c1ccc(C(C)(F)F)cc1` (stereo in doubt) [Compound 304], the concentration giving a half-maximal response (EC50) in test [1] was found to be 24 nM; in test [2], 34 nM.

For `CC[C@@H]1CN2c3c(c(=O)n(C)c4ccc(C#N)nc34)OC[C@@H]2CN1Cc1ccc(Cl)c(Cl)c1` [Compound 266], the figures for the half-maximal effective concentration (EC50) in test [1] and in test [2] were 111 nM and 163 nM, respectively.

Regarding `CC[C@@H]1CN2c3c(c(=O)n(C)c4ccc(C#N)nc34)OC[C@@H]2CN1[C@H](CC)c1ccc(F)c(Cl)c1` (stereo in doubt) [Compound 196], the figures for the concentration for a half-maximal effect (EC50) in test [1] and in test [2] were 846 nM and 1280 nM, respectively.

For the molecule `C[C@@H]1CN2c3c(c(=O)n(C)c4ccc(C#N)nc34)OC[C@@H]2CN1[C@H](C)c1ccc(C(F)(F)F)cc1` (stereo in doubt) [Compound 222], the 50% effective concentration (EC50) in test [1] is 154 nM; in test [2] it was 144 nM.

Take `CC[C@@H]1CN2c3c(c(=O)n(C)c4ccc(C#N)cc34)OC[C@@H]2CN1[C@H](CC)c1ccc(C(F)(F)F)cc1` [Compound 211]: the EC50 in test [1] is 175 nM; in test [2], 485 nM.

As to `CC[C@@H]1CN2c3c(c(=O)n(C)c4ccc(C#N)nc34)OC[C@@H]2CN1[C@@H](CC)c1ccc(C(F)(F)F)c(F)c1` (stereo in doubt) [Compound 319], the results for the EC50 in test [1] and in test [2] were 285 nM and 519 nM, respectively.

Regarding `CC[C@H]1CN([C@@H](CC)c2ccc(C(F)(F)F)cc2C)[C@H](CC)CN1c1nc2nncn2c2ccc(C#N)nc12` (stereo in doubt) [Compound 137], the values for the 50% effective concentration (EC50) in test [1] and in test [2] were 96 nM and 248 nM, respectively.
